Measurements as given in patent US9796719B2, “Compounds and pharmaceutical compositions thereof for the treatment of inflammatory disorders” (GALAPAGOS NV, priority 2013, dated 2017).

Target: hENPP2 (UniProtKB/SwissProt Sequence ref Q13822) (Homo sapiens (Human), UniProt Q13822)
Test: LPC hENPP2 assay (choline release, LPC as substrate)
Format: biochemical
Procedure, shortened: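 Detection is coupled: choline oxidase produces peroxide, which HRP uses to form quinoneimine dye from TOOS and 4-aminoantipyrine, read at 555 nm. The reaction is stopped with 20 mM EGTA in the developer mix, then incubated 30 min at room temperature; inhibition lowers signal.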

SMILES	IC50
CCc1nc2ccc(N3CCC(NC(=O)N4CCCC4)CC3)nn2c1N(C)c1nc(-c2ccc(F)cc2)cs1 [Compound 89, N-(1-(2-ethyl-3-((4-(4-fluorophenyl)thiazol-2-yl)(methyl)amino)imidazo[1,2-b]pyridazin-6-yl)piperidin-4-yl)pyrrolidine-1-carboxamide]	500 to 1000 nM
CCc1nc2ccc(N3CCN(CC4CNC(=O)O4)CC3)nn2c1N(C)c1nc(-c2ccc(F)cc2)c(CO)s1 (stereo not shown) [Cpd 41, 5-((4-(2-ethyl-3-((4-(4-fluorophenyl)-5-(hydroxymethyl)thiazol-2-yl)(methyl)amino)imidazo[1,2-b]pyridazin-6-yl)piperazin-1-yl)methyl) oxazolidin-2-one]	500 to 1000 nM
CCc1nc2ccc(N3CCC(N4CCC(CO)CC4)C3)nn2c1N(C)c1nc(-c2ccc(F)cc2)c(C#N)s1 (stereo not shown) [Cpd 179, 2-((2-ethyl-6-(3-(4-(hydroxymethyl)piperidin-1-yl)pyrrolidin-1-yl)imidazo[1,2-b]pyridazin-3-yl)(methyl)amino)-4-(4-fluorophenyl) thiazole-5-carbonitrile]	0.01 to 100 nM
CCc1nc2ccc(N3CCC(N4CCC(O)CC4)C3)nn2c1N(C)c1nc(-c2ccc(F)cc2)c(C#N)s1 (stereo not shown) [Cpd 182, 2-((2-ethyl-6-(3-(4-hydroxypiperidin-1-yl)pyrrolidin-1-yl)imidazo[1,2-b]pyridazin-3-yl)(methyl)amino)-4-(4-fluorophenyl) thiazole-5-carbonitrile]	0.01 to 100 nM
CCc1nc2ccc(N3CCC(NC(=O)CO)CC3)nn2c1N(C)c1nc(-c2ccc(F)cc2)cs1 [Cpd 85, N-(1-(2-ethyl-3-((4-(4-fluorophenyl)thiazol-2-yl)(methyl)amino)imidazo[1,2-b]pyridazin-6-yl)piperidin-4-yl)-2-hydroxyacetamide]	> 1000 nM
CCc1nc2cnc(N3CCN(CC(=O)N4CC(O)C4)CC3)cn2c1N(C)c1nccc(-c2ccc(F)cc2C#N)n1 [Cpd 18, 2-(2-((2-ethyl-6-(4-(2-(3-hydroxyazetidin-1-yl)-2-oxoethyl)piperazin-1-yl)imidazo[1,2-a]pyrazin-3-yl)(methyl)amino)pyrimidin-4-yl)-5-fluorobenzonitrile]	> 1000 nM
CCc1nc2ccc(N3CCC(O)(CNC(=O)C(C)C)C3)nn2c1N(C)c1nc(-c2ccc(F)cc2)c(C#N)s1 (stereo not shown) [Cpd 170, N-((1-(3-((5-cyano-4-(4-fluorophenyl)thiazol-2-yl)(methyl)amino)-2-ethylimidazo[1,2-b]pyridazin-6-yl)-3-hydroxypyrrolidin-3-yl)methyl) isobutyramide]	100 to 500 nM
CCc1nc2ccc(N3C[C@H]4C[C@H]3CN4C(C)=O)nn2c1N(C)c1nc(-c2ccc(F)cc2)cs1 [Cpd 75, 1-((1R,4S)-5-(2-ethyl-3-((4-(4-fluorophenyl)thiazol-2-yl)(methyl)amino)imidazo[1,2-b]pyridazin-6-yl)-2,5-diazabicyclo[2.2.1]heptan-2-yl)ethanone]	> 1000 nM
CCc1nc2ccc(N3CCN(C(=O)OC(C)(C)C)[C@H](CO)C3)nn2c1N(C)c1nc(-c2ccc(F)cc2)cs1 [Cpd 59, (S)-tert-butyl 4-(2-ethyl-3-((4-(4-fluorophenyl)thiazol-2-yl)(methyl)amino)imidazo[1,2-b]pyridazin-6-yl)-2-(hydroxymethyl) piperazine-1-carboxylate]	> 1000 nM
CCNC(=O)COC1CCCN(c2ccc3nc(CC)c(N(C)c4nc(-c5ccc(F)cc5)cs4)n3n2)C1 (stereo not shown) [Cpd 92, N-ethyl-2-(1-(2-ethyl-3-((4-(4-fluorophenyl)thiazol-2-yl)(methyl)amino)imidazo[1,2-b]pyridazin-6-yl)piperidin-3-yloxy)acetamide]	> 1000 nM
CCc1nc2ccc(N3CCC(N4CCCCC4)CC3)nn2c1N(C)c1nc(-c2ccc(F)cc2)cs1 [Cpd 111, N-(6-(1,4′-bipiperidin-1′-yl)-2-ethylimidazo[1,2-b]pyridazin-3-yl)-4-(4-fluorophenyl)-N-methylthiazol-2-amine]	> 1000 nM
CCc1nc2ccc(N3CCC(N4C[C@@H](C)O[C@@H](C)C4)C3)nn2c1N(C)c1nc(-c2ccc(F)cc2)c(C#N)s1 (stereo partly drawn) [Compound 178, 2-((6-(3-((2S,6R)-2,6-dimethylmorpholino)pyrrolidin-1-yl)-2-ethylimidazo[1,2-b]pyridazin-3-yl)(methyl)amino)-4-(4-fluorophenyl)thiazole-5-carbonitrile]	500 to 1000 nM
CCc1nc2ccc(N3CCC(CNC(=O)OC(C)(C)C)CC3)nn2c1N(C)c1nc(-c2ccc(F)cc2)cs1 [Cpd 103, [1-(2-Ethyl-3-{[4-(4-fluoro-phenyl)-thiazol-2-yl]-methyl-amino}-imidazo[1,2-b]pyridazin-6-yl)-piperidin-4-ylmethyl]-carbamic acid tert-butyl ester]	> 1000 nM
CCc1nc2ccc(N3CCCC(N4CCC(O)CC4)C3)nn2c1N(C)c1nc(-c2ccc(F)cc2)cs1 (stereo not shown) [Cpd 112, l′-(2-ethyl-3-((4-(4-fluorophenyl)thiazol-2-yl)(methyl)amino)imidazo[1,2-b]pyridazin-6-yl)-1,3′-bipiperidin-4-ol]	> 1000 nM
CCc1nc2ccc(N3CCC4(CCOCC4)C3)nn2c1N(C)c1nc(-c2ccc(F)cc2)c(CO)s1 [Cpd 186, (2-((2-ethyl-6-(8-oxa-2-azaspiro[4.5]decan-2-yl)[1,2-b]pyridazin-3-yl)(methyl)amino)-4-(4-fluorophenyl)thiazol-5-yl)methanol]	100 to 500 nM
CCc1nc2ccc(N3CC(C(=O)N4CCOCC4)C3)nn2c1N(C)c1nc(-c2ccc(F)cc2)c(C#N)s1 [Cpd 191, 2-((2-ethyl-6-(3-(morpholine-4-carbonyl)azetidin-1-yl)imidazo[1,2-b]pyridazin-3-yl)(methyl)amino)-4-(4-fluorophenyl) thiazole-5-carbonitrile]	100 to 500 nM

Second part, the compound after the results:

IC50	SMILES
> 1000 nM	CCc1nc2cnc(C3=CCN(S(C)(=O)=O)CC3)cn2c1N(C)c1nc(-c2ccc(F)cc2)c(C#N)s1 [Cpd 20, 2-((2-ethyl-6-(1-(methylsulfonyl)-1,2,3,6-tetrahydropyridin-4-yl)imidazo[1,2-a]pyrazin-3-yl)(methyl)amino)-4-(4-fluorophenyl) thiazole-5-carbonitrile]
100 to 500 nM	CCc1nc2ccc(N3CCC4(CN(C)C(=O)O4)C3)nn2c1N(C)c1nc(-c2ccc(F)cc2)c(CO)s1 (stereo not shown) [Cpd 120, 7-(2-ethyl-3-((4-(4-fluorophenyl)-5-(hydroxymethyl)thiazol-2-yl)(methyl)amino)imidazo[1,2-b]pyridazin-6-yl)-3-methyl-1-oxa-3,7-diazaspiro[4.4] nonan-2-one]
> 1000 nM	CCc1nc2ccc(N3CCC4(CCCCC4)CC3)nn2c1N(C)c1nc(-c2ccc(F)cc2)cs1 [Cpd 77, N-(2-ethyl-6-(3-azaspiro[5.5]undecan-3-yl)imidazo[1,2-b]pyridazin-3-yl)-4-(4-fluorophenyl)-N-methylthiazol-2-amine]
> 1000 nM	CCc1nc2ccc(N3CCN(CC(=O)N4C(C)CCC4C)CC3)nn2c1N(C)c1nc(-c2ccc(F)cc2)cs1 (stereo not drawn) [Cpd 32, 1-(2,5-dimethylpyrrolidin-l-yl)-2-(4-(2-ethyl-3-((4-(4-fluorophenyl)thiazol-2-yl)(methyl)amino)imidazo[1,2-b]pyridazin-6-yl)piperazin-1-yl)ethanone]
> 1000 nM	CCc1nc2ccc(N3CCC(CNC(=O)N(C)C)CC3)nn2c1N(C)c1nc(-c2ccc(F)cc2)cs1 [Cpd 106, 3-((l-(2-ethyl-3-((4-(4-fluorophenyl)thiazol-2-yl)(methyl)amino)imidazo[1,2-b]pyridazin-6-yl)piperidin-4-yl)methyl)-1,1-dimethylurea]
100 to 500 nM	CCc1nc2ccc(N3CCC4(CN(C)C(=O)O4)C3)nn2c1N(C)c1nc(-c2ccc(F)cc2)cs1 (stereo not shown) [Cpd 119, 7-(2-ethyl-3-((4-(4-fluorophenyl)thiazol-2-yl)(methyl)amino)imidazo[1,2-b]pyridazin-6-yl)-3-methyl-1-oxa-3,7-diazaspiro[4.4] nonan-2-one]
500 to 1000 nM	CCc1nc2ccc(N3CCC(N4CCNC(=O)C4)C3)nn2c1N(C)c1nc(-c2ccc(F)cc2)cs1 (stereo not shown) [Cpd 146, 4-(1-(2-ethyl-3-((4-(4-fluorophenyl)thiazol-2-yl)(methyl)amino)imidazo[1,2-b]pyridazin-6-yl)pyrrolidin-3-yl)piperazin-2-one]
0.01 to 100 nM	CCc1nc2ccc(N3CC(N)C3)nn2c1N(C)c1nc(-c2ccc(F)cc2)c(C#N)s1 [Cpd 188, 2-((6-(3-aminoazetidin-1-yl)-2-ethylimidazo[1,2-b]pyridazin-3-yl)(methyl)amino)-4-(4-fluorophenyl) thiazole-5-carbonitrile]
0.01 to 100 nM	CCc1nc2ccc(N3CCC(N4CCC(N(C)C(C)=O)CC4)C3)nn2c1N(C)c1nc(-c2ccc(F)cc2)c(C#N)s1 (stereo not shown) [Cpd 181, N-(1-(1-(3-((5-cyano-4-(4-fluorophenyl)thiazol-2-yl)(methyl)amino)-2-ethylimidazo[1,2-b]pyridazin-6-yl)pyrrolidin-3-yl)piperidin-4-yl)-N-methylacetamide]
100 to 500 nM	CCc1nc2ccc(C3=CCN(S(C)(=O)=O)CC3)nn2c1N(C)c1nc(-c2ccc(F)cc2C#N)cs1 [Cpd 204, 2-(2-((2-ethyl-6-(1-(methylsulfonyl)-1,2,3,6-tetrahydropyridin-4-yl)imidazo[1,2-b]pyridazin-3-yl)(methyl)amino)thiazol-4-yl)-5-fluorobenzonitrile]
> 1000 nM	CCc1nc2ccc(N3CCC(NC(=O)C4CCN(C(=O)OC(C)(C)C)CC4)CC3)nn2c1N(C)c1nc(-c2ccc(F)cc2)cs1 [Cpd 87, tert-butyl 4-(1-(2-ethyl-3-((4-(4-fluorophenyl)thiazol-2-yl)(methyl)amino)imidazo[1,2-b]pyridazin-6-yl)piperidin-4-ylcarbamoyl) piperidine-1-carboxylate]
100 to 500 nM	CCc1nc2ccc(N3CC(NC(=O)OC(C)(C)C)C3)nn2c1N(C)c1nc(-c2ccc(F)cc2)c(C#N)s1 [Cpd 187, [1-(3-{[5-Cyano-4-(4-fluoro-phenyl)-thiazol-2-yl]-methyl-amino}-2-ethyl-imidazo[1,2-b]pyridazin-6-yl)-azetidin-3-yl]-carbamic acid tert-butyl ester]
